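Protocol summary: plate cells (96-well), add compound at 5 concentrations, incubate 48 h, interpolate endpoints linearly. The concentration for full growth arrest is given as TGI.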
Experiments:
Test in all cases: NCI-60 cell line screen, 48 h
SNB-75 CNS = system: SNB-75 CNS
HOP-62 NSCLC = system: HOP-62 NSCLC
ACHN renal = system: ACHN renal
NCI-H23 lung = system: NCI-H23 lung
UACC-257 melanoma = system: UACC-257 melanoma
SK-OV-3 ovarian = system: SK-OV-3 ovarian
A498 renal = system: A498 renal
SR leukemia = system: SR leukemia
EKVX NSCLC = system: EKVX NSCLC
SK-MEL-2 melanoma = system: SK-MEL-2 melanoma

Structure (SMILES)	TGI (SNB-75 CNS)	TGI (HOP-62 NSCLC)	TGI (ACHN renal)	TGI (NCI-H23 lung)	TGI (UACC-257 melanoma)	TGI (SK-OV-3 ovarian)	TGI (A498 renal)	TGI (SR leukemia)	TGI (EKVX NSCLC)	TGI (SK-MEL-2 melanoma)
O=[N+]([O-])c1cc(F)ccc1Sc1ccccc1	> 10 µM	> 10 µM	> 10 µM	> 10 µM	> 10 µM	> 10 µM	> 10 µM	> 10 µM	> 10 µM	> 10 µM
COC1(OC)C=CC(=O)C=C1	26.9 µM	24.5 µM	8.56 µM	10.6 µM	8.48 µM	26.3 µM	> 91.2 µM	> 100 µM	21.9 µM	21.5 µM
COc1cc2oc(=O)cc(C)c2cc1OC	> 100 µM	> 100 µM	> 100 µM	> 100 µM	> 100 µM	> 100 µM	> 100 µM	> 100 µM	> 100 µM	> 100 µM
CC1CN=C(c2ccc(-c3nc(-c4ccc(C5=NCC(C)N5)cc4)nc(N(C)C)n3)cc2)N1 (stereo not given)	4.29 µM	5.35 µM	11.5 µM	9.94 µM	8.76 µM	5.54 µM	6.7 µM	2.49 µM	8.67 µM	4.05 µM
COC(=O)C1CC23C=CCN4CC(C2C)C2(c5ccccc5NC12)C43 (stereo not given)	> 100 µM	> 100 µM	> 100 µM	> 100 µM	> 100 µM	> 100 µM	> 100 µM	> 100 µM	> 100 µM	> 100 µM
N#C/C(=C1/c2cc([N+](=O)[O-])ccc2-c2c1cc([N+](=O)[O-])cc2[N+](=O)[O-])N1CCCCC1	41.2 µM	> 100 µM	> 100 µM	> 100 µM	> 100 µM	> 100 µM	> 100 µM	4.44 µM	> 100 µM	> 100 µM
O=C(O)CCSC1=NCCN1	> 100 µM	> 100 µM	> 100 µM	> 100 µM	> 100 µM	> 100 µM	> 100 µM	> 100 µM	> 100 µM	> 100 µM
CC1=NN2C(=N)/C(=C/c3ccccc3)C(=O)N=C2S1	> 100 µM	> 100 µM	> 100 µM	> 100 µM	> 100 µM	> 100 µM	> 100 µM	> 100 µM	> 100 µM	> 100 µM
COC(=O)[C@](C)(Cc1ccccc1)NC(=O)[C@@H](C)N1[C@@H](c2ccccc2)COC1(C)C	75.8 µM	> 100 µM	> 100 µM	> 100 µM	> 100 µM	> 100 µM	> 100 µM	> 100 µM	> 100 µM	> 100 µM
C=CC(OC(C)=O)c1ccc(OC(C)=O)cc1 (stereo not given)	31.5 µM	12.3 µM	6.26 µM	37.3 µM	16 µM	32.6 µM	25.3 µM	18.5 µM	41.4 µM	12 µM
COc1cc2c(cc1O)CCN(C)[C@H]2Cc1ccc(Oc2c(O)c(OC)cc3c2C[C@H]2c4c(c(OC)c(OC)c(OC)c4-3)CCN2C)cc1	9.61 µM	11.8 µM	10.7 µM	12.9 µM	13.4 µM	10.5 µM	12.7 µM	4.86 µM	11.3 µM	12.6 µM

— PubChem BioAssay (NCI)
